Measurements reported in PubChem BioAssay AID1259407 (Chemical Carcinogenesis Research Information System (CCRIS), 2018).
“Also recorded” adds a separate entry of the source. Active and inactive are the calls of the source. How the calls were made is not given here.

Test system: CCRIS mutagenicity, Ames/micronucleus/aberration tests
Assay: CCRIS mutagenicity studies
[1] = Test System: AMES SALMONELLA TYPHIMURIUM, Strain/Indicator: TA98, Metabolic Activation: NONE, Method: PREINCUBATION
[2] = Test System: AMES SALMONELLA TYPHIMURIUM, Strain/Indicator: TA98, Metabolic Activation: RAT LIVER S-9, PHENOBARBITAL AND BETA-NAPHTHOFLAVONE, Method: PREINCUBATION
[3] = Test System: AMES SALMONELLA TYPHIMURIUM, Strain/Indicator: TA100, Metabolic Activation: NONE, Method: PREINCUBATION
[4] = Test System: AMES SALMONELLA TYPHIMURIUM, Strain/Indicator: TA100, Metabolic Activation: RAT LIVER S-9, PHENOBARBITAL AND BETA-NAPHTHOFLAVONE, Method: PREINCUBATION
[5] = Test System: AMES SALMONELLA TYPHIMURIUM, Strain/Indicator: TA1535, Metabolic Activation: NONE, Method: PREINCUBATION
[6] = Test System: AMES SALMONELLA TYPHIMURIUM, Strain/Indicator: TA1535, Metabolic Activation: RAT LIVER S-9, PHENOBARBITAL AND BETA-NAPHTHOFLAVONE, Method: PREINCUBATION
[7] = Test System: AMES SALMONELLA TYPHIMURIUM, Strain/Indicator: TA1537, Metabolic Activation: NONE, Method: PREINCUBATION
[8] = Test System: AMES SALMONELLA TYPHIMURIUM, Strain/Indicator: TA1537, Metabolic Activation: RAT LIVER S-9, PHENOBARBITAL AND BETA-NAPHTHOFLAVONE, Method: PREINCUBATION
[9] = Test System: E.COLI, Strain/Indicator: WP2UVRA, Metabolic Activation: NONE, Method: PREINCUBATION
[10] = Test System: E.COLI, Strain/Indicator: WP2UVRA, Metabolic Activation: RAT LIVER S-9, PHENOBARBITAL AND BETA-NAPHTHOFLAVONE, Method: PREINCUBATION

SMILES: O=c1n(CC2CO2)c(=O)n(CC2CO2)c(=O)n1CC1CO1 (stereo not drawn)
- mutagenic call (End Point: IN VITRO CHROMOSOMAL ABERRATIONS, Test System: CHINESE HAMSTER LUNG CELLS (CHL), Metabolic Activation: NONE): active; positive (structural changes)
- mutagenic call (End Point: IN VITRO CHROMOSOMAL ABERRATIONS, Test System: CHINESE HAMSTER LUNG CELLS (CHL), Metabolic Activation: RAT, LIVER, S-9, KC-400): inactive; negative
- mutagenic call (End Point: IN VITRO CHROMOSOMAL ABERRATIONS, Test System: CHINESE HAMSTER OVARY CELLS (CHO), Metabolic Activation: NONE): active; positive (structural changes)
- mutagenic call (End Point: IN VITRO CHROMOSOMAL ABERRATIONS, Test System: CHINESE HAMSTER OVARY CELLS (CHO), Metabolic Activation: RAT, LIVER, S-9, AROCLOR 1254): active; positive (structural changes)
- mutagenic call (End Point: IN VITRO CHROMOSOMAL ABERRATIONS, Test System: CHL CELLS, Metabolic Activation: RAT, LIVER, S-9, SODIUM PHENOBARBITAL AND 5,6-BENZOFLAVONE): active; positive (structural changes)
- mutagenic call (End Point: IN VITRO CHROMOSOMAL ABERRATIONS, Test System: CHL CELLS, Metabolic Activation: S-9): active; positive; interlaboratory comparison between 2 labs; all reported positive resul; also recorded: active; positive (structural changes); interlaboratory comparison between 2 labs; both r
- mutagenic call (End Point: IN VITRO CHROMOSOMAL ABERRATIONS, Test System: CHO CELLS, Metabolic Activation: S-9): active; positive (structural changes); interlaboratory comparison between 2 labs; both r; also recorded: active; positive; interlaboratory comparison among 3 labs; all reported positive results
- mutagenic call (End Point: IN VITRO CHROMOSOMAL ABERRATIONS, Test System: CHO-LB CELLS, Metabolic Activation: NONE): active; positive
- mutagenic call (End Point: IN VITRO CHROMOSOMAL ABERRATIONS, Test System: CHO-LB CELLS, Metabolic Activation: RAT, LIVER, S-9, AROCLOR 1254): active; positive
- mutagenic call (Test System: AMES SALMONELLA TYPHIMURIUM, Strain/Indicator: TA98, Metabolic Activation: HAMSTER, LIVER, S-9, AROCLOR 1254 (30%), Method: PREINCUBATION): active; positive
- mutagenic call [1]: active; positive
- mutagenic call [2]: active; positive
- mutagenic call (Test System: AMES SALMONELLA TYPHIMURIUM, Strain/Indicator: TA98, Metabolic Activation: RAT, LIVER, S-9, AROCLOR 1254 (30%), Method: PREINCUBATION): active; positive
- mutagenic call (Test System: AMES SALMONELLA TYPHIMURIUM, Strain/Indicator: TA100, Metabolic Activation: HAMSTER, LIVER, S-9, AROCLOR 1254 (30%), Method: PREINCUBATION): active; positive
- mutagenic call [3]: active; positive
- mutagenic call [4]: active; positive
- mutagenic call (Test System: AMES SALMONELLA TYPHIMURIUM, Strain/Indicator: TA100, Metabolic Activation: RAT, LIVER, S-9, AROCLOR 1254 (30%), Method: PREINCUBATION): active; positive
- mutagenic call [5]: active; positive
- mutagenic call [6]: active; positive
- mutagenic call [7]: inactive; negative
- mutagenic call [8]: inactive; negative
- mutagenic call [9]: inactive; negative
- mutagenic call [10]: inactive; negative

SMILES: Cc1cnc[nH]1
- mutagenic call (End Point: In vivo micronucleus, Test System: Bone marrow polychromatic erythrocytes, Species: Mouse, Strain/Sex: B6C3F1/Male, Route: Intraperitoneal): inactive; positive in trial 1; negative in trial 2; percentage of pces declined with incre
- mutagenic call (End Point: In vivo micronucleus, Test System: Polychromatic erythrocytes and Normochromatic erythrocytes, Species: Mouse, Strain/Sex: B6C3F1/Female, Route: Oral): inactive; negative (no increase in micronucleus frequencies at all levels; percentage of
- mutagenic call (End Point: In vivo micronucleus, Test System: Polychromatic erythrocytes and Normochromatic erythrocytes, Species: Mouse, Strain/Sex: B6C3F1/Male, Route: Oral): inactive; negative (no increase in micronucleus frequencies at all levels; percentage of
- mutagenic call [1]: inactive; negative
- mutagenic call [2]: inactive; negative
- mutagenic call [3]: inactive; negative
- mutagenic call [4]: inactive; negative
- mutagenic call (Test System: AMES SALMONELLA TYPHIMURIUM, Strain/Indicator: TA102, Metabolic Activation: NONE, Method: PREINCUBATION): inactive; negative
- mutagenic call (Test System: AMES SALMONELLA TYPHIMURIUM, Strain/Indicator: TA102, Metabolic Activation: RAT LIVER S-9, PHENOBARBITAL AND BETA-NAPHTHOFLAVONE, Method: PREINCUBATION): inactive; negative
- mutagenic call (Test System: AMES SALMONELLA TYPHIMURIUM, Strain/Indicator: TA104, Metabolic Activation: NONE, Method: PREINCUBATION): inactive; negative
- mutagenic call (Test System: AMES SALMONELLA TYPHIMURIUM, Strain/Indicator: TA104, Metabolic Activation: RAT LIVER S-9, PHENOBARBITAL AND BETA-NAPHTHOFLAVONE, Method: PREINCUBATION): inactive; negative
- mutagenic call [5]: inactive; negative
- mutagenic call [6]: inactive; negative
- mutagenic call [7]: inactive; negative
- mutagenic call [8]: inactive; negative
- mutagenic call (Test System: Ames Salmonella typhimurium, Strain/Indicator: TA97, Metabolic Activation: Hamster, liver, S-9, Aroclor 1254, Method: Preincubation): inactive; negative
- mutagenic call (Test System: Ames Salmonella typhimurium, Strain/Indicator: TA97, Metabolic Activation: None, Method: Preincubation): inactive; negative
- mutagenic call (Test System: Ames Salmonella typhimurium, Strain/Indicator: TA97, Metabolic Activation: Rat, liver, S-9, Aroclor 1254, Method: Preincubation): inactive; negative
- mutagenic call (Test System: Ames Salmonella typhimurium, Strain/Indicator: TA98, Metabolic Activation: Hamster, liver, S-9, Aroclor 1254, Method: Preincubation): inactive; negative
- mutagenic call (Test System: Ames Salmonella typhimurium, Strain/Indicator: TA98, Metabolic Activation: None, Method: Preincubation): inactive; negative
- mutagenic call (Test System: Ames Salmonella typhimurium, Strain/Indicator: TA98, Metabolic Activation: Rat, liver, S-9, Aroclor 1254, Method: Preincubation): inactive; negative
- mutagenic call (Test System: Ames Salmonella typhimurium, Strain/Indicator: TA100, Metabolic Activation: Hamster, liver, S-9, Aroclor 1254, Method: Preincubation): inactive; negative
- mutagenic call (Test System: Ames Salmonella typhimurium, Strain/Indicator: TA100, Metabolic Activation: None, Method: Preincubation): inactive; negative
- mutagenic call (Test System: Ames Salmonella typhimurium, Strain/Indicator: TA100, Metabolic Activation: Rat, liver, S-9, Aroclor 1254, Method: Preincubation): inactive; negative
- mutagenic call (Test System: Ames Salmonella typhimurium, Strain/Indicator: TA1535, Metabolic Activation: Hamster, liver, S-9, Aroclor 1254, Method: Preincubation): inactive; negative
- mutagenic call (Test System: Ames Salmonella typhimurium, Strain/Indicator: TA1535, Metabolic Activation: None, Method: Preincubation): inactive; negative
- mutagenic call (Test System: Ames Salmonella typhimurium, Strain/Indicator: TA1535, Metabolic Activation: Rat, liver, S-9, Aroclor 1254, Method: Preincubation): inactive; negative
- mutagenic call (Test System: E.COLI, Strain/Indicator: WP2UVRA/PKM101, Metabolic Activation: NONE, Method: PREINCUBATION): inactive; negative
- mutagenic call (Test System: E.COLI, Strain/Indicator: WP2UVRA/PKM101, Metabolic Activation: RAT LIVER S-9, PHENOBARBITAL AND BETA-NAPHTHOFLAVONE, Method: PREINCUBATION): inactive; negative
- mutagenic call [9]: inactive; negative
- mutagenic call [10]: inactive; negative

SMILES: Cc1cc(C)cc(OC(=O)N(C)N=O)c1
- mutagenic call (Test System: E. COLI WP2, Strain/Indicator: WP2, Metabolic Activation: NONE, Method: STANDARD PLATE): active; positive

SMILES: O=[N+]([O-])c1ccc2ccc3c4ccccc4nc4ccc1c2c43
- mutagenic call (Test System: AMES SALMONELLA TYPHIMURIUM, Strain/Indicator: TA98(1,8-DNP6), Metabolic Activation: NONE): active; positive
- mutagenic call (Test System: AMES SALMONELLA TYPHIMURIUM, Strain/Indicator: TA98(NR), Metabolic Activation: NONE): active; positive
- mutagenic call (Test System: AMES SALMONELLA TYPHIMURIUM, Strain/Indicator: TA98, Metabolic Activation: NONE): active; positive
